Experimental data taken from patent US7141595B2, “Amino benzothiazole compounds with NOS inhibitory activity” (Neuraxon Inc., priority 2002, dated 2006).
pIC50: −log10 of the molar value. Where a name gives a salt, the structure may show the parent alone.

Key:
[1] = biological target: nNOS (UniProt P29476); assay: nNOS enzyme assay (hemoglobin capture assay); assay type: biochemical; details: initial velocity, read-out: IC50 of NOS, nNOS
Procedure: (§1) The reaction mixture for iNOS contained 10 mM of L-arginine, […], 6.5 mM BH4 and 3 mM oxyhemoglobin in 100 mM Hepes (pH 7.5). All assays were in a final volume of […] and were initiated with enzyme.
(§2) IC50 and percent inhibition of NOS by the compounds of the invention were determined under initial velocity measurement condition with hemoglobin capture assay as described above using varying concentrations of the compounds of the invention.

[2] = biological target: T1, iNOS (UniProt P29477); assay: iNOS enzyme assay (hemoglobin capture assay); assay type: biochemical; details: initial velocity, read-out: IC50 of NOS, iNOS
T1 sequence (P29477 1-1144): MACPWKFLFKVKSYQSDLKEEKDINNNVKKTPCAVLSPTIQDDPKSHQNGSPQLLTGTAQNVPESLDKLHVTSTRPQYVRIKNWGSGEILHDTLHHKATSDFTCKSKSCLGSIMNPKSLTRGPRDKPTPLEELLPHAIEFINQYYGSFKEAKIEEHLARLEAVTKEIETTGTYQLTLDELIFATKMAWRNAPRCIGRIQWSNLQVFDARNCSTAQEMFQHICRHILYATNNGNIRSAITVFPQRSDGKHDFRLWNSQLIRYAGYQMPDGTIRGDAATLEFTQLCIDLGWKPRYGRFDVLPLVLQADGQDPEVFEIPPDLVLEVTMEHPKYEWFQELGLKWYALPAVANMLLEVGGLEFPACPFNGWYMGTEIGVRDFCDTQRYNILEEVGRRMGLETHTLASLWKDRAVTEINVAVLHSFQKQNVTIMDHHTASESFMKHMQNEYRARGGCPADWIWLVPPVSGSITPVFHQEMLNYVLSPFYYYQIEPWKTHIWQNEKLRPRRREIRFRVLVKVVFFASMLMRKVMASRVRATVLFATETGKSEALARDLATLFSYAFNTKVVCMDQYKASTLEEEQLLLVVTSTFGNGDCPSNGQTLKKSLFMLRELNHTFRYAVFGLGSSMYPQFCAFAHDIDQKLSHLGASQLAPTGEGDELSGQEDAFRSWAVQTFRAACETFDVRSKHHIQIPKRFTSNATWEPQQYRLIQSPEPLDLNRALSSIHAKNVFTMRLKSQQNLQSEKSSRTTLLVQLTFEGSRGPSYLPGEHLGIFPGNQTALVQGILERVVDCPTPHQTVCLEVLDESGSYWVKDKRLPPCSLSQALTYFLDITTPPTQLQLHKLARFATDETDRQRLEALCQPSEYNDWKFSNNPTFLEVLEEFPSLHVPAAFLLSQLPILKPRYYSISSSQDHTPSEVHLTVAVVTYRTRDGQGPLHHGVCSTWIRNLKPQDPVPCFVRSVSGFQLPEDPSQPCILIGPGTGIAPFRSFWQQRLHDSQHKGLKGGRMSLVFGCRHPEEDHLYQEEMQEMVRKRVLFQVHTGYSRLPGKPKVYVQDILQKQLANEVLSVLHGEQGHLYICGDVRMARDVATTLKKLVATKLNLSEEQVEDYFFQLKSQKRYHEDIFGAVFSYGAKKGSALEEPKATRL
Procedure: as §1, §2

[3] = biological target: T2, eNOS (UniProt P29473); assay: eNOS enzyme assay (hemoglobin capture assay); assay type: biochemical; details: initial velocity, read-out: IC50 of NOS, eNOS
T2 sequence (P29473 1-1205): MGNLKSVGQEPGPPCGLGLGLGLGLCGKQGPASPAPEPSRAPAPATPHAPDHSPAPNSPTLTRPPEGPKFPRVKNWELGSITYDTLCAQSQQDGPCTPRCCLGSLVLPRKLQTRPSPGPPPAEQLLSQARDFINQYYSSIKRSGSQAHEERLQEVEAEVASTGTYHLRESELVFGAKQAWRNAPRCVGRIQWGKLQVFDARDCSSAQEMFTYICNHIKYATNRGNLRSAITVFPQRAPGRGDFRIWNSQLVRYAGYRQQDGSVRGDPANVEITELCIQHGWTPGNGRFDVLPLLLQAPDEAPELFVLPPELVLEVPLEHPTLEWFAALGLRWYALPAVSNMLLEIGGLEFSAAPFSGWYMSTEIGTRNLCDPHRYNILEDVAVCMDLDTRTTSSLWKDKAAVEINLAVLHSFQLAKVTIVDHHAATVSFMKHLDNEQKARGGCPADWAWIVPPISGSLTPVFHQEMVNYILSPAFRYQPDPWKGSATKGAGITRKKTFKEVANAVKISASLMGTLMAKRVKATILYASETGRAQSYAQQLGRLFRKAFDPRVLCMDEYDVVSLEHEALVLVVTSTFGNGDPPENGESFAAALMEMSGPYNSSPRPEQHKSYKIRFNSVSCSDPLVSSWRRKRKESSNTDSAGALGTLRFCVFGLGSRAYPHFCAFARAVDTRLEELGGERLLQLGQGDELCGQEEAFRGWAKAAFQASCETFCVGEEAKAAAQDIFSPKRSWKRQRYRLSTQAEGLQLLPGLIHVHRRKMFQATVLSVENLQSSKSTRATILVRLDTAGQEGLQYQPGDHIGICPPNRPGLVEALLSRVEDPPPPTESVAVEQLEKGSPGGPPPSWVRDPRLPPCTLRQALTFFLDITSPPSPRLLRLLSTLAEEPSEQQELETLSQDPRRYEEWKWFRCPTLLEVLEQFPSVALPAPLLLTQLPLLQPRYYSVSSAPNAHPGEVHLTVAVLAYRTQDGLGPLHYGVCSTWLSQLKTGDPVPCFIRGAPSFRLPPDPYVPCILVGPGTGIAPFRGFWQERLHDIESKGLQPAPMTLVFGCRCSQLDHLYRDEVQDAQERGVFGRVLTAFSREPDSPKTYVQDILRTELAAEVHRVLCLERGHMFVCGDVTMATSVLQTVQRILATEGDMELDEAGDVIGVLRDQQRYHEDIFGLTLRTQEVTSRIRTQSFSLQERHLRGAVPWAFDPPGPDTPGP
Procedure: The generation of nitric oxide by NOS was measured using the hemoglobin capture assay (Proc. Natl. Acad. Sci., U.S.A. 1990, 87, 714; Huang et al. J. Med. Chem. 2000, 43, 2938). An assay mixture for nNOS contained 10 mM L-arginine, 1.6 mM CaCl2, […] calmoduline, […], 6.5 mM BH4 and 3 mM oxyhemoglobin in 100 mM Hepes (pH 7.5). The reaction mixture for iNOS contained 10 mM of L-arginine, […], 6.5 mM BH4 and 3 mM oxyhemoglobin in 100 mM Hepes (pH 7.5). All assays were in a final volume of […] and were initiated with enzyme. Nitric oxide reacts with oxyhemoglobin to yield methehemoglobin which is detected at 401 nm (ε=19,700 M^−1cm^−1) on a Perkin-Elmer Lamda 10 UV/vis spectrophotometer.
as §2

[4] = tested on: Rat cortical neuronal cultures; assay: Neuroprotection of rat cortical cells against NMDA challenge; assay type: cell-based; details: 25 μM NMDA 30 minutes; 60-minute pre-incubation; % cell death by propidium iodide after 24 hrs
Procedure: Rat cortical neuronal cultures were exposed for 30 minutes to 25 μM NMDA in buffer with or without the test compounds according to previously reported procedures (J. Neurosci. 2000 October 1; 20(19):7183–92). Test compounds were added for a 60-minute pre-incubation period in order to maximize the chance of seeing neuroprotection. After 24 hrs cultures were treated with propidium iodide and the % cell death determined.

Compound	pIC50 [1]	pIC50 [2]	pIC50 [3]	neuroprotection during NMDA challenge [4]
CSC(=N)Nc1ccc2nc(N)sc2c1 [Example 4, N-(2-Amino-benzothiazol-6-yl)-2-methylthiocarboximidamide]	5.38	3.49	4.08	–
N=C(Nc1ccc2nc(N)sc2c1)c1cccs1 [Example 9, N-(2-Amino-benzothiazol-6-yl)-2-thiophenecarboximidamide]	–	–	3.92	–
N=C(Nc1ccc2nc(NCCN3CCCC3)sc2c1)c1cccs1 [Example 13, N-[2-(2-pyrrolidin-1-ylethylamino)-benzothiazol-6-yl]-2-thiophenecarboximidamide]	4.92	3.90	4.00	–
Nc1nc2cc(NC(=S)NC(=O)c3ccccc3)ccc2s1 [Example 17, 1-(2-Amino-benzothiazol-5-yl)-3-benzoyl-thiourea]	4.49	3.56	4.03	–
NC(=S)Nc1ccc2sc(N)nc2c1 [Example 18, (2-Amino-benzothiazol-5-yl)-thiourea]	4.24	3.91	3.84	–
N=C(Nc1ccc2sc(N)nc2c1)c1cccs1 [Example 20, N-(2-Amino-benzothiazol-5-yl)-thiophene-2-carboxamidine hydrobromide]	–	4.14	3.77	–
N=C(Nc1ccc2nc(NCCc3cnc[nH]3)sc2c1)c1cccs1 [Example 36(e), N-{2-[2-(3H-Imidazol-4-yl)-ethylamino]-benzothiazol-6-yl}-thiophene-2-carboxamidine]	–	–	–	neuroprotection observed
N=C(Nc1ccc2nc(NCCc3ccc(Br)cc3)sc2c1)c1cccs1 [Example 36b, N-{2-[2-(4-Bromo-phenyl)-ethylamino]-benzothiazol-6-yl}-thiophene-2-carboxamidine]	5.84	4.04	3.96	–
N=C(Nc1ccc2nc(NC3CCN(Cc4ccccc4)CC3)sc2c1)c1cccs1 [Example 36d, N-[2-(1-Benzyl-piperidin-4-ylamino)-benzothiazol-6-yl]-thiophene-2-carboxamidine]	5.80	3.79	3.68	–
N=C(Nc1ccc2nc(NCCN3CCOCC3)sc2c1)c1cccs1 [Example 36f, N-[2-(2-Morpholin-4-yl-ethylamino)-benzothiazol-6-yl]-thiophene-2-carboxamidine]	–	< 3.52	< 3.52	neuroprotection observed
